Each structure is given as a SMILES string. Read-outs that look alike come from different tables or passages of the source.

In the assay the test system is DLD-1 BRCA2−/− cells. The experiment in a line: Homologous recombination synthetic lethal inhibition of proliferation, DLD-1 BRCA2-/- (Cell Titre Glo 3D). The class given is cell-based. Conditions: Homo sapiens. Put shortly:
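Wild-type DLD-1 serves as the control for non-specific toxicity, and BRCA2-null DLD-1 as the homologous-recombination-deficient line. Both grew with compound from 10 μM down to 0.51 nM, re-dosed after 6 days. Luminescent ATP content (CellTiter-Glo 3D) was read after 7 or 12 days, respectively, to give IC50 values.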

Setting [1] is: DLD-1, DLD-1 BRCA2 −/− cells, mean, read-out: POLQ PD Prolif Lumin BRCA2 −/− mean pIC50 (converted).
Setting [2] is: DLD-1, first proliferation column (c5), taken as DLD-1 BRCA2-/-, read-out: POLQ PD Prolif Lumin (converted).
[3] abbreviates: DLD-1, first proliferation column (c5), DLD-1 BRCA2-/-, read-out: POLQ PD Prolif Lumin (converted).

Consider `CC1(Oc2ncnc3c2nc(-c2ccc(CC(N)=O)cc2Cl)n3Cc2cc(C(F)(F)F)ccn2)CC1` [Example T36, 2-(3-chloro-4-(6-(1-methylcyclopropoxy)-9-((4-(trifluoromethyl)pyridin-2-yl)methyl)-9H-purin-8-yl)phenyl)acetamide], for which, under setting [1], the IC50 was 501 nM.

Turning to `Cc1ccnc(Cn2c(-c3ccc(OCCN(C)C)cc3Cl)nc3c(OC4(C)CC4)nccc32)c1` [Example T381, 2-(3-chloro-4-(4-(1-methylcyclopropoxy)-1-((4-methylpyridin-2-yl)methyl)-1H-imidazo[4,5-c]pyridin-2-yl)phenoxy)-N,N-dimethylethan-1-amine], the IC50 under setting [2] was 251 nM.

For the molecule `COc1ncc(Cl)cc1Cn1c(-c2ccc(OCCC(C)C(=O)O)cc2Cl)nc2c(OC3(C)CC3)ncnc21` (racemic) [Example U53, 4-(3-chloro-4-(9-((5-chloro-2-methoxypyridin-3-yl)methyl)-6-(1-methylcyclopropoxy)-9H-purin-8-yl)phenoxy)-2-methylbutanoic acid], the IC50 (DLD-1, DLD-1 BRCA2 −/−, mean, read-out: POLQ PD Prolif Lumin BRCA2 −/− mean pIC50 (converted)) was 316 nM.

In the case of `COC(=O)Nc1ccc(-c2nc3c(OC4(C)CC4)ncnc3n2Cc2cc(C)ccn2)c(Cl)c1` [Example T62, methyl (3-chloro-4-(6-(1-methylcyclopropoxy)-9-((4-methylpyridin-2-yl)methyl)-9H-purin-8-yl)phenyl)carbamate], the IC50 under setting [1] was 251 nM.

For `Cc1ccnc(Cn2c(-c3ccc(OCC(=O)NCCCF)cc3Cl)nc3c(OC4(C)CC4)ncnc32)c1` [Example T328, 2-(3-chloro-4-(6-(1-methylcyclopropoxy)-9-((4-methylpyridin-2-yl)methyl)-9H-purin-8-yl)phenoxy)-N-(3-fluoropropyl)acetamide], the IC50 under setting [2] was 398 nM.

In the case of `COC(=O)CCOc1ccc(-c2nc3c(OC4(C)CC4)ncnc3n2Cc2cccc(Cl)c2)c(Cl)c1` [Example T156, methyl 3-(3-chloro-4-(9-(3-chlorobenzyl)-6-(1-methylcyclopropoxy)-9H-purin-8-yl)phenoxy)propanoate], the IC50 under setting [3] was 200 nM.

Take `Cc1ccnc(Cn2c(-c3ccc(OCC(=O)N(C)CCO)cc3Cl)nc3c(OC4(C)CC4)ncnc32)c1` [Example T374, 2-(3-chloro-4-(6-(1-methylcyclopropoxy)-9-((4-methylpyridin-2-yl)methyl)-9H-purin-8-yl)phenoxy)-N-(2-hydroxyethyl)-N-methylacetamide]: under setting [2], the IC50 is 1260 nM.

Turning to `COC1(COc2ccc(-c3nc4c(OC5(C)CC5)ncnc4n3Cc3cc(C)ccn3)c(Cl)c2)COC1` [Example T333, 8-(2-chloro-4-((3-methoxyoxetan-3-yl)methoxy)phenyl)-6-(1-methylcyclopropoxy)-9-((4-methylpyridin-2-yl)methyl)-9H-purine], the IC50 under setting [2] was 251 nM.

For `CC1(Oc2ncnc3c2nc(-c2ccc(CC(N)=O)cc2Cl)n3Cc2ccc(F)cc2C#N)CC1` [Example T78, 2-(3-chloro-4-(9-(2-cyano-4-fluorobenzyl)-6-(1-methylcyclopropoxy)-9H-purin-8-yl)phenyl)acetamide], the IC50 under setting [1] was 5010 nM.

On to `Cc1ccnc(Cn2c(-c3ccc(OCC(=O)N4CCC(O)CC4)cc3Cl)nc3c(OC4(C)CC4)ncnc32)c1` [Example T580, 2-(3-chloro-4-(6-(1-methylcyclopropoxy)-9-((4-methylpyridin-2-yl)methyl)-9H-purin-8-yl)phenoxy)-1-(4-hydroxypiperidin-1-yl)ethan-1-one], for which the IC50 (DLD-1, first proliferation column, DLD-1 BRCA2-/-, read-out: POLQ PD Prolif Lumin (converted)) was 501 nM.

As to `C[C@@H](COc1cccc(-c2nc3c(OC4(C)CC4)ncnc3n2Cc2cccc(Cl)c2)c1Cl)C(=O)O` [Example T160, (S)-3-(2-chloro-3-(9-(3-chlorobenzyl)-6-(1-methylcyclopropoxy)-9H-purin-8-yl)phenoxy)-2-methylpropanoic acid], the IC50 under setting [3] is 200 nM.

As for `CNS(=O)(=O)c1ccc(-c2nc3c(OC4(C)CC4)ncnc3n2Cc2cc(C)ccn2)c(Cl)c1` [Example T30, 3-chloro-N-methyl-4-(6-(1-methylcyclopropoxy)-9-((4-methylpyridin-2-yl)methyl)-9H-purin-8-yl)benzenesulfonamide], the IC50 under setting [1] was 631 nM.

These data come from patent US20250195530A1, “POLQ INHIBITORS” (ASTRAZENECA AB, priority 2022, published 2025).
